The values that follow come from ChEMBL document CHEMBL4270497, “Recent advances (2015-2016) in anticancer hybrids” (Eur J Med Chem, 2017).

SMILES strings stand for the structures. Converted amounts (≈) assume the structure as drawn.

One series has as its system HUVEC. Nature of the series: Inhibition of VEGF-induced cell migration of HUVEC assessed as wound closure level at cytotoxic IC50 incubated for 24 hrs (reference value: 100%). Set-up: scale not given: the % may be the effect or the level left. The series is classed as functional, Homo sapiens.
Series [1] concerns the target Vascular endothelial growth factor receptor 1 (Homo sapiens, UniProt P17948). As to the kind of experiment: Inhibition of VEGFR1 (unknown origin) using KKKSPGEYVNIEFG substrate and [33P-g-ATP] incubated for 30 mins.
Series [2] has as its system PC-3. As to the kind of experiment: Cytotoxicity in human PC3 cells assessed as reduction in cell viability incubated for 48 hrs by MTT assay. The series is classed as functional, cell-based. The following applies: PC-3, 48 h. On the technique in general: Tetrazolium dyes change colour on reduction, which living cells bring about.
Series [3] deals with HT-29. Nature of the series: Cytotoxicity in human HT-29 cells assessed as reduction in cell viability incubated for 48 hrs by MTT assay. The settings on record: HT-29, 48 h. Type of series: functional, cell-based.
Series [4] concerns A549. As to the kind of experiment: Cytotoxicity in human A549 cells assessed as reduction in cell viability incubated for 48 hrs by MTT assay. Type of series: functional, cell-based. The settings on record: A549, 48 h.
Another series concerns U-87 MG. Nature of the series: Cytotoxicity in human U87MG cells assessed as reduction in cell viability incubated for 48 hrs by MTT assay. The series is classed as functional, cell-based, U-87MG ATCC.
The next series relates to DU-145. As to the kind of experiment: Antiproliferative activity against human DU145 cells incubated for 48 hrs by MTT assay. Type of series: functional, cell-based. The following applies: DU-145, 48 h.
For series [5], the system named is HEK293. As to the kind of experiment: Antiproliferative activity against HEK293 cells incubated for 48 hrs by MTT assay. The series is classed as cell-based. The following applies: Homo sapiens, HEK293, 48 h.
In series [6] the test system is HT-29. Nature of the series: Antiproliferative activity against human HT-29 cells incubated for 48 hrs by MTT assay. Type of series: functional, cell-based. The following applies: HT-29, 48 h.
The test system of series [7] is A549. As to the kind of experiment: Antiproliferative activity against human A549 cells incubated for 48 hrs by MTT assay. Type of series: functional, cell-based. The following applies: A549, 48 h.
The test system of a further series is HL-60. As to the kind of experiment: Anticancer activity against human HL60 cells assessed as reduction in cell viability incubated for 48 hrs by MTT assay. The series is classed as functional, cell-based. The following applies: HL-60, 48 h.
For series [8], the system named is MCF7. Nature of the series: Anticancer activity against human MCF7 cells assessed as reduction in cell viability incubated for 48 hrs by MTT assay. The series is classed as functional, cell-based. The settings on record: MCF7, 48 h.
The test system of series [9] is A549. As to the kind of experiment: Cytotoxicity in human A549 cells assessed a reduction in cell viability incubated for 48 hrs by MTT assay. Type of series: functional, cell-based. The settings on record: A549, 48 h.
The subject of the next series is KB. Nature of the series: Cytotoxicity in human KB cells assessed as reduction in cell viability. The series is classed as functional, cell-based.
The test system of another series is Bel-7402. As to the kind of experiment: Antiproliferative activity against human Bel7402 cells incubated for 48 hrs by MTT assay. The series is classed as functional. The settings on record: Bel-7402, 48 h.
Series [10] has as its system K562. Nature of the series: Antiproliferative activity against human K562 cells incubated for 48 hrs by MTT assay. The series is classed as functional. The following applies: K562, 48 h.
The subject of series [11] is PC-3. Nature of the series: Antiproliferative activity against human PC3 cells incubated for 48 hrs by MTT assay. Type of series: functional. The settings on record: PC-3, 48 h.
A further series deals with HeLa. As to the kind of experiment: Antiproliferative activity against human HeLa cells incubated for 48 hrs by MTT assay. The series is classed as functional, cell-based.
The test system of a further series is MDA-MB-231. Nature of the series: Growth inhibition of human MDA-MB-231 cells at 10 uM. Type of series: functional. The following applies: read-out: GI.
Series [12] concerns HEK293. As to the kind of experiment: Cytotoxicity in HEK293 cells at 100 uM by MTT assay. The series is classed as cell-based. The following applies: human, hek293, 100 µM.
For a further series, the system named is A498. Nature of the series: Growth inhibition of human A498 cells at 10 uM. Type of series: functional. The settings on record: read-out: GI.
Series [13] has as its system MCF7. Nature of the series: Antiproliferative activity against human MCF7 cells incubated for 48 hrs by MTT assay. Type of series: functional, cell-based. The following applies: MCF7, 48 h.
A further series deals with HCT-116. Nature of the series: Antiproliferative activity against human HCT116 cells incubated for 48 hrs by MTT assay. The series is classed as functional, cell-based. The following applies: HCT-116, 48 h.
Series [14] has as its system Panel NCI-60 (60 carcinoma cell lines). As to the kind of experiment: Growth inhibition of human NCI60 cells incubated for 48 hrs by SRB assay. The series is classed as functional. (The SRB assay estimates cell density from bound dye.)
The test system of the next series is REH. Nature of the series: Cytotoxicity in human REH cells assessed as reduction in cell viability incubated for 48 to 72 hrs by trypan blue dye exclusion assay. Type of series: functional, cell-based.
For series [15], the system named is K562. Nature of the series: Cytotoxicity in human K562 cells assessed as reduction in cell viability incubated for 48 to 72 hrs by trypan blue dye exclusion assay. The series is classed as functional, cell-based.

Chain of Vascular endothelial growth factor receptor 1 (P17948 whole entry): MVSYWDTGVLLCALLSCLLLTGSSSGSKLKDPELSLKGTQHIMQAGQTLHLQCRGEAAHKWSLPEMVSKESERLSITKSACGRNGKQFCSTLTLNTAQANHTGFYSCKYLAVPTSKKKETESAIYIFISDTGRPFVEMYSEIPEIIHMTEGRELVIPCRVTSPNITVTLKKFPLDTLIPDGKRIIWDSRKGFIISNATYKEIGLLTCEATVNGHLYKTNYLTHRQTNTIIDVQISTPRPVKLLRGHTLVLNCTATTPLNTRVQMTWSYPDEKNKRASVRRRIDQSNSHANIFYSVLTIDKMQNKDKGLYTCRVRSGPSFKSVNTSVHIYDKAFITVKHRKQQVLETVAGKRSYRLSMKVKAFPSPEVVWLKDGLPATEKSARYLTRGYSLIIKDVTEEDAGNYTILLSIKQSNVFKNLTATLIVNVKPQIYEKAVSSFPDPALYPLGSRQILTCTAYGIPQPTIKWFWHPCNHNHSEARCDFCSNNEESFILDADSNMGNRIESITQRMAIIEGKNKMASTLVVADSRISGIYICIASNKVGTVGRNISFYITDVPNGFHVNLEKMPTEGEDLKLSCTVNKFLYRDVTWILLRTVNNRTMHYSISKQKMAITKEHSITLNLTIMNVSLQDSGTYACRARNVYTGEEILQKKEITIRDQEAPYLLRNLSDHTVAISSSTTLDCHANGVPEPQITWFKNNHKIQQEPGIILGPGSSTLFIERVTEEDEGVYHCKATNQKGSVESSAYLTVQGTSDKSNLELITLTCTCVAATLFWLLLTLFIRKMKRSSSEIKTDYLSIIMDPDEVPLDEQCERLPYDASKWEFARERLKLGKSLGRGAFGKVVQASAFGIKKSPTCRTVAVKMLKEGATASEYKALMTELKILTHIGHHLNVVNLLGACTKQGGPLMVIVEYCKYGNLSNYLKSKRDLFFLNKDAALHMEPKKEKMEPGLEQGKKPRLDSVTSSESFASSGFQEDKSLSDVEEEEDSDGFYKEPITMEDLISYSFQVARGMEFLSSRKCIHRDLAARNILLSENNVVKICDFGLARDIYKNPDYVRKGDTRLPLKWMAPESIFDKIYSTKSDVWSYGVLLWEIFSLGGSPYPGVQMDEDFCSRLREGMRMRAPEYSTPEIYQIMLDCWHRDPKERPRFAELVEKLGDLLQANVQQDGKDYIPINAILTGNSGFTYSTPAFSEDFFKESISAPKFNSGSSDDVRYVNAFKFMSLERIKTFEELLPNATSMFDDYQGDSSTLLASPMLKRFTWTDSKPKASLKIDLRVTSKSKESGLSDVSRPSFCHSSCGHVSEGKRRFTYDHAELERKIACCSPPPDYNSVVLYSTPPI

For orientation: IC50 means the concentration that inhibits the measured activity by half. Consider `O=C(Nc1ccc(F)cc1)c1sccc1Nc1cccc2c1OCCO2`, for which the Activity with HUVEC turned out to be 20%. The molecule further returned an IC50 in [1] of 1900 nM.

`COc1ccc(Cn2cc(C(=O)c3cn(-c4ccccc4)nc3-c3ccc(Cl)cc3)nn2)cc1OC`: the concentration for half-maximal inhibition (IC50) stood at 3710 nM in the series on PC-3 [2], 2420 nM in the series on HT-29 [3], 1930 nM in the series on A549 [4] and 860 nM in the series with U-87 MG.

As for `O=C(c1cn(Cc2cccc(Oc3ccccc3)c2)nn1)c1cccnc1Nc1ccc(F)cc1`, the 50% inhibitory concentration (IC50) was 100 nM in the series with DU-145, 59600 nM with HEK293 [5], 200 nM in the series on HT-29 [6] and 1100 nM in the series with A549 [7].

For the molecule `O=C(c1ccccc1)c1ccc2[nH]c(-c3c4ccccc4cc4ccccc34)nc2c1`, the half-maximal inhibitory concentration (IC50) in the series with HL-60 was found to be 15200 nM; with MCF7 [8], 16200 nM.

Take `O=C(/C=C/c1cc2c([nH]c3ccccc32)c(-c2ccc(F)cc2)n1)c1ccc([N+](=O)[O-])cc1`: the concentration for half-maximal inhibition (IC50) with A549 [9] was below 10000 nM.

Regarding `COc1ccc(C(=O)/C=C/c2cc3c([nH]c4ccccc43)c(-c3ccc(OC)c(OC)c3)n2)cc1`, in the series on A549 [9], the concentration for half-maximal inhibition (IC50) was below 10000 nM.

Regarding `COc1cc(-c2nc(/C=C/C(=O)c3cc(OC)c(OC)c(OC)c3)cc3c2[nH]c2ccccc23)ccc1F`, the IC50 in the series with A549 [9] was below 10000 nM.

On to `CC[C@]1(O)C[C@H]2CN(CCc3c([nH]c4ccccc34)[C@@](C(=O)OC)(c3cc4c(cc3OC)N(C=O)[C@H]3[C@@](O)(C(=O)OC)[C@H](OC(C)=O)[C@]5(CC)C=CCN6CC[C@]43[C@@H]65)C2)C1` [VINCRISTINE], for which the IC50 in the series on KB was 0.46 µg/mL (≈ 0.558 µM).

As to `COc1ccc(Cn2cc(C(=O)c3cccnc3Nc3ccc(F)cc3)nn2)cc1OC`, the 50% inhibitory concentration (IC50) in the series with DU-145 came out at 3100 nM; in the series with HEK293 [5], 64300 nM; with HT-29 [6], 3700 nM; in the series on A549 [7], 4100 nM.

For `COc1cc(-c2nc(/C=C/C(=O)c3ccc(F)cc3)cc3c2[nH]c2ccccc23)ccc1F`, in the series with A549 [9], the IC50 is below 10000 nM.

Molecule `COc1ccc(C(=O)/C=C/c2cc3c([nH]c4ccccc43)c(-c3cc(OC)c(OC)c(OC)c3)n2)cc1` had an IC50 with A549 [9] below 10000 nM.

The term GI50 denotes the concentration giving 50% growth inhibition. Take `COc1cc2c(c(OC)c1OC)C/C(=C\c1cccc3[nH]ccc13)C2=O`: the GI50 in the series on Bel-7402, in the series on K562 [10], in the series with A549 [7], with PC-3 [11] and with HeLa was 26 to 35 nM in each case.

For `O=C(/C=C/c1cc2c([nH]c3ccccc32)c(-c2ccc(F)cc2)n1)c1ccc(F)cc1`, in the series on A549 [9], the IC50 was below 10000 nM.

As to `COc1ccc(-c2cn3c(-c4ccc(OC)cc4)cnc3c(Oc3ccc4c(C)cc(=O)oc4c3)n2)cc1`, the inhibition of growth at 10 µM was 93% in the series on MDA-MB-231 and 90% with A498. The same molecule gave an Activity in the series with HEK293 [12] of 17%.

In turn, `COc1ccc(-c2nc(/C=C/C(=O)c3ccc(F)cc3)cc3c2[nH]c2ccccc23)cc1OC` returned a half-maximal inhibitory concentration (IC50) in the series with A549 [9] below 10000 nM.

As to `COc1ccc(Nc2ncccc2C(=O)/C=C/Nc2ccc3[nH]ccc3c2)cc1`, the IC50 with MCF7 [13], in the series with HCT-116, in the series with A549 [7] and in the series with HeLa was 510 to 1290 nM throughout.

With `COc1ccc(-c2nc(/C=C/C(=O)c3ccc([N+](=O)[O-])cc3)cc3c2[nH]c2ccccc23)cc1OC`, in the series with A549 [9], the 50% inhibitory concentration (IC50) was below 10000 nM.

Consider `COc1ccc(-c2nc(/C=C/C(=O)c3ccc(N)cc3)cc3c2[nH]c2ccccc23)cc1OC`, for which, in the series on A549 [9], the IC50 is below 10000 nM.

Molecule `CC(=O)N1N=C(c2ccc[nH]2)CC1c1cn(-c2ccccc2)nc1-c1cc2ccccc2o1` (stereo unspecified) came in with a GI50 in series [14] of 1000 to 2710 nM.

The molecule `COc1cc(-c2nc(/C=C/C(=O)c3ccc(N)cc3)cc3c2[nH]c2ccccc23)cc(OC)c1OC` returned a half-inhibitory concentration (IC50) in the series with A549 [9] below 10000 nM.

As for `COc1ccc(Cn2cc(C(=O)c3cn(-c4ccccc4)nc3-c3ccc(F)cc3)nn2)cc1OC`, the half-maximal inhibitory concentration (IC50) with PC-3 [2] came out at 5870 nM; in the series with HT-29 [3] it was 2540 nM; with A549 [4], 2130 nM; in the series with U-87 MG it was 3760 nM.

As to `COc1cc(C(=O)N/N=C2\C(=O)Nc3ccc(C)cc32)cc(OC)c1OC`, the IC50 in the series on REH turned out to be 500 nM; with K562 [15], 2000 nM.
